# Results reported in ChEMBL document CHEMBL4138123, “Design, synthesis and biological evaluation of novel pyrazolochalcones as potential modulators of PI3K/Akt/mTOR pathway and inducers of apoptosis in breast cancer cells” (Eur J Med Chem, 2017).
# Legend:
# Assay type in all cases: functional
# [1] = tested on: U-251; experiment: Cytotoxicity against human U251 cells assessed as cell growth at 100 uM after 48 hrs by sulforhodamine B assay relative to control; conditions: U-251, 48 h, read-out: Activity
# [2] = tested on: SF-539; experiment: Cytotoxicity against human SF539 cells assessed as cell growth at 10 uM after 48 hrs by sulforhodamine B assay relative to control; conditions: SF-539, 48 h, read-out: Activity
# [3] = tested on: BT-549; experiment: Cytotoxicity against human BT549 cells assessed as cell growth at 10 uM after 48 hrs by sulforhodamine B assay relative to control; conditions: BT-549, 48 h, read-out: Activity
# [4] = tested on: RPMI-8226; experiment: Cytotoxicity against human RPMI8226 cells assessed as cell growth at 100 uM after 48 hrs by sulforhodamine B assay relative to control; conditions: RPMI-8226, 48 h, read-out: Activity
# [5] = tested on: MOLT-4; experiment: Cytotoxicity against human MOLT4 cells assessed as cell growth at 100 uM after 48 hrs by sulforhodamine B assay relative to control; conditions: MOLT-4, 48 h, read-out: Activity
# [6] = tested on: OVCAR-8; experiment: Cytotoxicity against human OVCAR8 cells assessed as growth inhibition after 48 hrs by sulforhodamine B assay; conditions: OVCAR-8, 48 h
# [7] = tested on: NCI/ADR-RES; experiment: Cytotoxicity against human NCI/ADR-RES cells assessed as cell growth at 1 uM after 48 hrs by sulforhodamine B assay relative to control; conditions: read-out: Activity
# [8] = tested on: Malme-3M; experiment: Cytotoxicity against human MALME-3M cells assessed as cell growth at 0.01 uM after 48 hrs by sulforhodamine B assay relative to control; conditions: read-out: Activity
# [9] = tested on: NCI-H322M; experiment: Cytotoxicity against human NCI-H322M cells assessed as cell growth at 100 uM after 48 hrs by sulforhodamine B assay relative to control; conditions: read-out: Activity
# [10] = tested on: TK-10; experiment: Cytotoxicity against human TK10 cells assessed as growth inhibition after 48 hrs by sulforhodamine B assay; conditions: TK-10, 48 h
# [11] = tested on: RXF 393; experiment: Cytotoxicity against human RXF393 cells assessed as cell growth at 0.1 uM after 48 hrs by sulforhodamine B assay relative to control; conditions: RXF 393, 48 h, read-out: Activity
# [12] = tested on: KM12; experiment: Cytotoxicity against human KM12 cells assessed as cell growth at 1 uM after 48 hrs by sulforhodamine B assay relative to control; conditions: KM12, 48 h, read-out: Activity
# [13] = tested on: NCI-H460; experiment: Cytotoxicity against human NCI-H460 cells assessed as cell growth at 100 uM after 48 hrs by sulforhodamine B assay relative to control; conditions: NCI-H460, 48 h, read-out: Activity
# [14] = tested on: SK-MEL-28; experiment: Cytotoxicity against human SK-MEL-28 cells assessed as cell growth at 100 uM after 48 hrs by sulforhodamine B assay relative to control; conditions: SK-MEL-28, 48 h, read-out: Activity
# [15] = tested on: SK-MEL-28; experiment: Cytotoxicity against human SK-MEL-28 cells assessed as cell growth at 0.01 uM after 48 hrs by sulforhodamine B assay relative to control; conditions: SK-MEL-28, 48 h, read-out: Activity
# [16] = tested on: ACHN; experiment: Cytotoxicity against human ACHN cells assessed as cell growth at 100 uM after 48 hrs by sulforhodamine B assay relative to control; conditions: read-out: Activity
# [17] = tested on: A549; experiment: Cytotoxicity against human A549/ATCC cells assessed as cell growth at 10 uM after 48 hrs by sulforhodamine B assay relative to control; conditions: A549, 48 h, read-out: Activity
# [18] = tested on: COLO 205; experiment: Cytotoxicity against human COLO205 cells assessed as cell growth at 0.1 uM after 48 hrs by sulforhodamine B assay relative to control; conditions: COLO 205, 48 h, read-out: Activity
# [19] = tested on: SN12C; experiment: Cytotoxicity against human SN12C cells assessed as cell growth at 100 uM after 48 hrs by sulforhodamine B assay relative to control; conditions: read-out: Activity
# [20] = tested on: HCT-116; experiment: Cytotoxicity against human HCT116 cells assessed as cell growth at 10 uM after 48 hrs by sulforhodamine B assay relative to control; conditions: HCT-116, 48 h, read-out: Activity
# [21] = tested on: ACHN; experiment: Cytotoxicity against human ACHN cells assessed as cell growth at 0.01 uM after 48 hrs by sulforhodamine B assay relative to control; conditions: read-out: Activity
# [22] = tested on: SK-MEL-28; experiment: Cytotoxicity against human SK-MEL-28 cells assessed as growth inhibition after 48 hrs by sulforhodamine B assay; conditions: SK-MEL-28, 48 h
# [23] = tested on: MDA-MB-468; experiment: Cytotoxicity against human MDA-MB-468 cells assessed as cell growth at 0.01 uM after 48 hrs by sulforhodamine B assay relative to control; conditions: MDA-MB-468, 48 h, read-out: Activity
# [24] = tested on: ACHN; experiment: Cytotoxicity against human ACHN cells assessed as growth inhibition after 48 hrs by sulforhodamine B assay
# [25] = tested on: OVCAR-3; experiment: Cytotoxicity against human OVCAR3 cells assessed as cell growth at 0.01 uM after 48 hrs by sulforhodamine B assay relative to control; conditions: OVCAR-3, 48 h, read-out: Activity
# [26] = tested on: SR; experiment: Cytotoxicity against human SR cells assessed as cell growth at 100 uM after 48 hrs by sulforhodamine B assay relative to control; conditions: read-out: Activity
# [27] = tested on: SK-MEL-28; experiment: Cytotoxicity against human SK-MEL-28 cells assessed as cell growth at 0.1 uM after 48 hrs by sulforhodamine B assay relative to control; conditions: SK-MEL-28, 48 h, read-out: Activity
# [28] = tested on: OVCAR-5; experiment: Cytotoxicity against human OVCAR5 cells assessed as cell growth at 100 uM after 48 hrs by sulforhodamine B assay relative to control; conditions: OVCAR-5, 48 h, read-out: Activity
# [29] = tested on: MDA-MB-468; experiment: Cytotoxicity against human MDA-MB-468 cells assessed as growth inhibition after 48 hrs by sulforhodamine B assay; conditions: MDA-MB-468, 48 h
# [30] = tested on: HL-60(TB); experiment: Cytotoxicity against human HL-60(TB) cells assessed as cell growth at 100 uM after 48 hrs by sulforhodamine B assay relative to control; conditions: HL-60, 48 h, read-out: Activity
# [31] = tested on: SR; experiment: Cytotoxicity against human SR cells assessed as cell growth at 1 uM after 48 hrs by sulforhodamine B assay relative to control; conditions: read-out: Activity
# [32] = tested on: MDA-MB-468; experiment: Cytotoxicity against human MDA-MB-468 cells assessed as cell growth at 1 uM after 48 hrs by sulforhodamine B assay relative to control; conditions: MDA-MB-468, 48 h, read-out: Activity
# [33] = tested on: SW-620; experiment: Cytotoxicity against human SW620 cells assessed as cell growth at 100 uM after 48 hrs by sulforhodamine B assay relative to control; conditions: SW-620, 48 h, read-out: Activity
# [34] = tested on: OVCAR-4; experiment: Cytotoxicity against human OVCAR4 cells assessed as cell growth at 0.01 uM after 48 hrs by sulforhodamine B assay relative to control; conditions: OVCAR-4, 48 h, read-out: Activity
# [35] = tested on: NCI-H226; experiment: Cytotoxicity against human NCI-H226 cells assessed as cell growth at 100 uM after 48 hrs by sulforhodamine B assay relative to control; conditions: NCI-H226, 48 h, read-out: Activity
# [36] = tested on: Malme-3M; experiment: Cytotoxicity against human MALME-3M cells assessed as cell growth at 100 uM after 48 hrs by sulforhodamine B assay relative to control; conditions: read-out: Activity
structure (smiles),measurement,setting,value
COc1ccc(-c2cc(/C=C/C(=O)c3ccc(OC)c(OC)c3)[nH]n2)cc1,growth at 100 µM,[1],-100%
same,growth at 10 µM,[2],-93%
same,growth at 10 µM,[3],-70%
same,growth at 100 µM,[4],-62%
same,growth at 100 µM,[5],-33%
same,GI50,[6],2.16 µM
same,LC50,[6],57.6 µM
same,TGI,[6],10.4 µM
same,growth at 1 µM,[7],91%
same,growth at 0.01 µM,[8],89%
same,growth at 100 µM,[9],-98%
same,GI50,[10],2.11 µM
same,LC50,[10],8.78 µM
same,TGI,[10],4.31 µM
same,growth at 0.1 µM,[11],93%
same,growth at 1 µM,[12],70%
same,growth at 100 µM,[13],-63%
same,growth at 100 µM,[14],-100%
same,growth at 0.01 µM,[15],101%
same,growth at 100 µM,[16],-98%
same,growth at 10 µM,[17],-23%
same,growth at 0.1 µM,[18],104%
same,growth at 100 µM,[19],-86%
same,growth at 10 µM,[20],-78%
same,growth at 0.01 µM,[21],100%
same,GI50,[22],1.65 µM
same,LC50,[22],5.74 µM
same,TGI,[22],3.07 µM
same,growth at 0.01 µM,[23],87%
same,GI50,[24],1.68 µM
same,LC50,[24],8.71 µM
same,TGI,[24],3.83 µM
same,growth at 0.01 µM,[25],106%
same,growth at 100 µM,[26],-41%
same,growth at 0.1 µM,[27],98%
same,growth at 100 µM,[28],-87%
same,GI50,[29],1.22 µM
same,LC50,[29],7.12 µM
same,TGI,[29],2.94 µM
same,growth at 100 µM,[30],-43%
same,growth at 1 µM,[31],39%
same,growth at 1 µM,[32],61%
same,growth at 100 µM,[33],-55%
same,growth at 0.01 µM,[34],88%
same,growth at 100 µM,[35],-43%
same,growth at 100 µM,[36],-100%
COc1ccc(C(=O)/C=C/c2cc(-c3cc(OC)c(OC)c(OC)c3)n[nH]2)cc1OC,growth at 100 µM,[1],-99%
same,growth at 10 µM,[2],-94%
same,growth at 10 µM,[3],-88%
same,growth at 100 µM,[4],-41%
same,growth at 100 µM,[5],-23%
same,LC50,[6],5.64 µM
same,TGI,[6],2.73 µM
same,growth at 1 µM,[7],90%
same,growth at 0.01 µM,[8],95%
same,growth at 100 µM,[9],-90%
same,LC50,[10],5.1 µM
same,TGI,[10],2.6 µM
same,growth at 0.1 µM,[11],100%
same,growth at 1 µM,[12],54%
same,growth at 100 µM,[13],-65%
same,growth at 100 µM,[14],-90%
same,growth at 0.01 µM,[15],97%
same,growth at 100 µM,[16],-91%
same,growth at 10 µM,[17],-43%
same,growth at 0.1 µM,[18],106%
same,growth at 100 µM,[19],-86%
same,growth at 10 µM,[20],-65%
same,growth at 0.01 µM,[21],101%
same,LC50,[22],6.25 µM
same,TGI,[22],3.34 µM
same,growth at 0.01 µM,[23],89%
same,LC50,[24],5.75 µM
same,TGI,[24],3.09 µM
same,growth at 0.01 µM,[25],100%
same,growth at 100 µM,[26],3%
same,growth at 0.1 µM,[27],104%
same,growth at 100 µM,[28],-71%
same,GI50,[29],0.75 µM
same,LC50,[29],5.21 µM
same,TGI,[29],2.18 µM
same,growth at 100 µM,[30],-51%
same,growth at 1 µM,[31],11%
same,growth at 1 µM,[32],45%
same,growth at 100 µM,[33],-67%
same,growth at 0.01 µM,[34],95%
same,growth at 100 µM,[35],-49%
same,growth at 100 µM,[36],-81%
